Source: patent US6121323A, “Bishydroxyureas” (3M Innovative Properties Company, priority 1997, dated 2000)

Tests used:
5-lipoxygenase = biological target: T1, 5-lipoxygenase (Homo sapiens, UniProt P09917); assay: 5-Lipoxygenase inhibition in human leukocytes (LTC4 by radioimmunoassay); assay type: cell-based; conditions: A23187 stimulated, LTC4 readout, read-out: IC50 (concentration producing 50% leukotriene biosynthesis inhibition)
T1 construct: endogenous in cells; host or cells: leukocytes from whole human blood (EDTA, dextran sedimentation, hypotonic lysis)
T1 sequence (P09917 1-674): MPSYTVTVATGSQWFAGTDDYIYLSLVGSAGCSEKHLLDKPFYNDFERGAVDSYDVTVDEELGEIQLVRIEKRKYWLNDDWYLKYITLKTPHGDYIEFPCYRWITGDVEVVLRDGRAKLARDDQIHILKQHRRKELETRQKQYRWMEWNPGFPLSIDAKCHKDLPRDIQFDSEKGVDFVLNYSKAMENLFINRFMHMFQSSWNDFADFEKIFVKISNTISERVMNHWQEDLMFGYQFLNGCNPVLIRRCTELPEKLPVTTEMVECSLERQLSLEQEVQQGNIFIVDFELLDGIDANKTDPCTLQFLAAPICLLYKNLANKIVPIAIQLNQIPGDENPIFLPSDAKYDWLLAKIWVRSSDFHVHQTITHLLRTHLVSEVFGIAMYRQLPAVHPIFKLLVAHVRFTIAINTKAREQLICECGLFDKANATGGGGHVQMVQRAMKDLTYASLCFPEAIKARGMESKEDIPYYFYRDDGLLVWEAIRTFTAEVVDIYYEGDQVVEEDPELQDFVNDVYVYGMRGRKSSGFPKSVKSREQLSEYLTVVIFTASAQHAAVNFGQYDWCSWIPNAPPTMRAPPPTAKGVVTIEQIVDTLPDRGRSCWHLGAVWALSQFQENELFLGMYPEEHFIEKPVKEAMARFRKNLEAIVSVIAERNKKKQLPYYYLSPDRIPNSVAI
Method: 5-LIPOXYGENASE INHIBITION IN HUMAN LEUKOCYTES
The test method described below measures the ability of compounds of the invention to inhibit 5-lipoxygenase activity in human leukocytes.
Whole human blood is collected by venipuncture into EDTA (1.4 mL of 0.25M per 60 mL of whole blood). The red blood cells are sedimented with a 6% dextran/0.9% sodium chloride solution at a ratio of 25 mL whole blood to 15 mL dextran solution. The blood/dextran combination is mixed by inversion and the red blood cells are allowed to settle out for 45 minutes at ambient temperature. The plasma/dextran supernatant is removed then centrifuged at ambient temperature at 3000 rpm for 10 minutes. The plasma/dextran supernatant is removed and the cells are resuspended in 10 mL of the plasma/dextran solution. The cell suspension is combined with 20 mL of water, mixed for 1.5 minutes then immediately combined with 10 mL of 3.6% sodium chloride, mixed and centrifuged at ambient temperature at 3000 rpm for 10 minutes. The pellet is washed with 40 mL of Tris buffer (5.55 mM dextrose, 15.36 mM Tris base, 136.9 mM sodium chloride with pH 7.3-7.4) then centrifuged at 3000 rpm for 10 minutes. The pellet is then resuspended into Tris buffer containing 1 mM calcium chloride to provide approximately 1.0×10^7 cells/mL.
Compounds are dissolved in dimethyl sulfoxide. Compounds are tested at concentrations of 100, 33, 11, 3.7, 1.2 and 0.41 μM. Each concentration is tested in duplicate.
A 15 μL portion of Tris buffer containing 1 mM calcium chloride is added to each well of a 96 well microtiter plate. A 1 μL portion of drug solution or vehicle (dimethyl sulfoxide) is added to each well followed by the addition of a 75 μL portion of the cell suspension. The plates are gently mixed then allowed to stand at ambient temperature for 10 minutes. A 10 μL portion of 30 μM A23187 Calcium Ionophore (prepared by dissolving the ionophore in DMSO and then diluting 1:80 into the Tris buffer) is added to each well except the wells that contain the blanks. The blank wells measure the level of LTC4 production in the absence of A23187. The plates are gently mixed then incubated at 37° C. for 10 minutes.
Following incubation the plates are centrifuged at 2000 rpm for 1.5 minutes and the supernatant is removed as quickly as possible to stop the reaction. The supernatants are frozen at -20° C. until they are assayed.
The supernatants are assayed for the presence of Leukotriene C4 by radioimmunoassay which is performed according to the manufacturer's instructions (Advanced Magnetics; Cambridge, Mass.). Inhibition of leukotriene biosynthesis is calculated as the ratio of the amount of LTC4 formed in the presence (LTC4 +cpd) and absence (LTC4 no cpd) of compound according to the following equation. [formula] IC50 values (concentrations of compound producing 50% leukotriene biosynthesis inhibition) are calculated by linear regression analysis of percentage inhibition versus log compound concentration plots.

[1] = test system: Leukotriene C4 production in mouse peritoneal macrophages; assay: In vitro mouse peritoneal macrophage Leukotriene C4 inhibition; assay type: cell-based; conditions: zymosan stimulated, read-out: Percent Inhibition
Method: IN VITRO MOUSE PERITONEAL MACROPHAGE LEUKOTRIENE C4 INHIBITION
The test described below measures the ability of compounds to inhibit the production of Leukotriene C4 in mouse peritoneal macrophages.
Mice (female, CD-1, weighing 25 g) are euthanized by exposure to carbon dioxide. The pertoneal cavity is exposed by peeling back the abdominal skin. A 5 mL portion of media (M199 containing 1% fetal bovine serum, 100 units/mL of penicillin, 100 μg/mL streptomycin, 20 units/mL of heparin and no glutamine) is injected into the exposed peritoneal cavity of each mouse. The lavage fluid is removed and pooled to yield proximately 1×10^6 macrophages/mL. A 2 mL portion of lavage fluid is added to each well of a 24 well sterile multidish and the marcophages are allowed to adhere to the plate for 2 hours at 37° C. in a 5% carbon dioxide atmosphere. The media is removed and each well is washed with 2 mL of phosphate buffered saline (PBS). A 1 mL portion of media, without heparin, but containing 5 μCi/mL of 3H-myoinositol is added to each well and the plates are incubated overnight at 37° C. in a 5% carbon dioxide atmosphere. The media is removed and the cells are washed twice with 2 mL portions of PBS. A 1 mL portion of Puck's saline formulation A containing 1 mM calcium chloride, 1 mM magnesium chloride and 10 mM lithium chloride is added to each well. (The Puck's formulation is made first as a 10× solution which contains 4 g of potassium chloride, 80 g of sodium chloride and 10 g of glucose per liter. The Puck's saline formulation A is made using 10 mL of the 10× Puck's formulation, 0.47 mL of 7.5% sodium bicarbonate and 2 mL of 1M N-2-hydroxyethylpiperazine-N'-2-ethanesulfonic acid per 100 mL.)
Compounds are dissolved in dimethyl sulfoxide. Compounds are tested at concentrations of 10, 1 and 0.1 μM. Each concentration is tested in duplicate.
A 1 μL portion of compound solution or vehicle (DMSO) is added to each well and the plates are incubated for 15 minutes at 37° C. in a 5% carbon dioxide atmosphere. Zymosan is then added to provide a final concentration of 50 μg/mL in each well and the plate is incubated for 1 to 2 hours at 37° C. in a 5% carbon dioxide atmosphere.
Following incubation 200 μL portions of media are transferred to 12×75 mm tubes. The tubes are either assayed immediately or stored at -20° C. until they can be assayed.
The media is assayed for the presence of Leukotriene C4 by radioimmunoassay which is performed according to the manufacturer's instructions (Advanced Magnetics; Cambridge, Mass.). Inhibition of LTC4 production is calculated as the ratio of the amount of LTC4 formed in the presence (LTC4 +cpd) and absence (LTC4 no cpd)of compound according to the equation below. [formula] IC50 values (concentration of compound producing a 50% inhibition of LTC4 production) are calculated by linear regression analysis of percentage inhibition versus log compound concentration plots.

[2] = test system: Leukotriene B4 production in rat blood; assay: Rat ex vivo Leukotriene B4 inhibition; assay type: in vivo; conditions: 50 mg/Kg oral, 2 hours post dose, ex vivo A23187 challenge
Method: RAT EX VIVO LEUKOTRIENE B4 INHIBITION
The test method described below measures the ability of a compound when administrated orally to rats to inhibit the production of Leukotriene B4 in their blood which is drawn and challenged.
Rats (CD, male, non-fasted, 250 g) are lightly anesthetized with carbon dioxide and an approximately 0.75 mL sample of whole blood is obtained via cardiac puncture. The sample is dispensed into 12×75 mm polypropylene tubes containing 8-10 μL of 10,000 units/mL heparin, mixed and then maintained on ice. The rats are allowed to recover approximately one hour then dosed orally with compound dissolved in PEG 400 at a 5 mL/Kg volume. Five (5) rats are utilized per group. Two (2) hours post dose the rats are again anesthetized with carbon dioxide and the blood sampled again via cardiac puncture.
Duplicate 200 μL portions of blood are added to 1.0 mL polypropylene tubes. A 10 μL portion of 1 mM A23 187 Calcium Ionophore in dimethyl sulfoxide/Tris buffer is added to each tube. The tubes are gently vortexed then incubated in a 37° C. water bath for 30 minutes. The tubes are then centrifuged at 4000 rpm for 10 minutes. 50 μL portions of plasma are transferred to 1.0 mL tubes containing 200 μL of methanol. The tubes are vortexed then placed in the freezer overnight.
The tubes are removed from the freezer then centrifuged at 4000 rpm for 10 minutes. 20 μL portions of the methanol/plasma supernatant and 10 μl methanol dilutions of LTB4 standard are transferred to 96 well v-bottom microtiter plates. The plates are vacuum dried at 40° C. A 40 μL portion of LTB4 radioimmunoassay buffer is added to each well. The plate is bath sonicated for 5 minutes then assayed according to the manufacturer's instructions (Advanced Magnetics; Cambridge, Mass.). Percent inhibition values are obtained by comparing the level of LTB4 in the post-dose samples to the level in the pre-dose samples according to the equation below. [formula]

Structure (SMILES) | IC50 (5-lipoxygenase) [nM] | further results
CCC(CC)N(O)C(=O)Nc1ccc(Oc2ccc(NC(=O)N(O)C(CC)CC)cc2)cc1 [Example 14, 4,4'-Oxybis(1-hydroxy-1-(1-ethylpropyl)-3-phenylurea)] | 100 | 
CCC(CC)N(O)C(=O)NC(C)(C)c1cccc(C(C)(C)NC(=O)N(O)C(CC)CC)c1 [Example 13, 1,1'-(m-Phenylene)bis(1-methyl-1-(3-hydroxy-3-(1-ethylpropyl)ureido)ethane)] | 65000 | 
CCC(CC)N(O)C(=O)Nc1ccc(Cc2ccc(NC(=O)N(O)C(CC)CC)cc2)cc1 [Example 12, 4,4'-Methylenebis(1-hydroxy-1-(1-ethylpropyl)-3-phenylurea)] |  | inhibition at 0.1 µM ([1]; 0.1 μM): 83%; inhibition at 1 µM ([1]; 1.0 μM): 93%; inhibition at 10 µM ([1]; 10.0 μM): 100%; inhibition in vivo at 50 mg/kg [2]: 15%
CCC(CC)N(O)C(=O)NCCCC(C)CNC(=O)N(O)C(CC)CC (centres unmarked) [Example 17, 1,1'-(2-Methylpentamethylene)bis(3-hydroxy-3-(1-ethylpropyl)urea)] | 12000 | 
CCC(CC)N(O)C(=O)NCCCCCCCCNC(=O)N(O)C(CC)CC [Example 18, 1,1'-Octamethylenebis(3-hydroxy-3-(1-ethylpropyl)urea)] | 330 | 

More lines, main results first:

IC50 (5-lipoxygenase) [nM] | Structure (SMILES) | further results
110 | CCC(CC)N(O)C(=O)Nc1ccc(Cc2ccc(NC(=O)N(O)C(CC)CC)c(Cl)c2)cc1Cl [Example 19, 4,4'-Methylenebis(1-hydroxy-1-(1-ethylpropyl)-3-(2-chlorophenyl)urea)] | 
2100 | CCC(CC)N(O)C(=O)Nc1ccc(NC(=O)N(O)C(CC)CC)cc1 [Example 15, 1,1'-(p-Phenylene)bis(3-hydroxy-3-(1-ethylpropyl)urea)] | 
58600 | CCC(CC)N(O)C(=O)Nc1ccc(C)c(NC(=O)N(O)C(CC)CC)c1 [Example 16, 1,1'-(4-Methyl-m-phenylene)bis(3-hydroxy-3-(1-ethylpropyl)urea)] | 
